# Measured values published in patent publication US9814712B2, “(S)-pirlindole and its pharmaceutically acceptable salts for use in medicine” (TECNIMEDE SOCIEDADE TECNICO-MEDICINAL S.A., priority 2014, dated 2017).
# Test system: spared nerve injury (SNI) model, mechanical allodynia
# Experiment: Von Frey test of mechanical allodynia in the spared nerve injury (SNI) model
# Assay type: in vivo, Sprague-Dawley rats
# Settings: SNI rats, 20 mg/kg i.p. daily, Von Frey monofilaments, naive and sham 15 g
# From the text: For this purpose, the inventors have chosen the animal model designed by Decosterd and Woolf (Pain, 2000), which developed a partial denervation model, technically easy to perform and subject to minimal variability in the degree of damage produced. Most important was that this is a model that will enable a direct measurement of changes in both injured primary sensory neurons and in neighbouring intact sensory neurons so that their relative contribution to the pathophysiology of pain could be investigated. […] All procedures were performed on adult (200-250 g) male Sprague-Dawley rats. Under halothane (2%) anesthesia, the skin on the lateral surface of the thigh was incised and a section made directly through the biceps femoris muscle exposing the sciatic nerve and its three terminal branches: the sural, the common peroneal and the tibial nerves. The spared nerve injury procedure comprised an axotomy and ligation of the tibial and common peroneal nerves leaving the sural nerve intact. The common peroneal and the tibial nerves were tight-ligated with 5.0 silk and sectioned distal to the ligation, removing 2±4 mm of the distal nerve stump. Great care was taken to avoid any contact with or stretching of the intact sural nerve. Muscle and skin were closed in two layers. Sham controls involved exposure of the sciatic nerve and its branches without any lesion. The Von Frey test is a mechanical sensitivity assay that consists of thin calibrated plastic filaments, called Von Frey hairs, which are applied to the plantar surface of the hindpaw of the tested animal. The filaments present different degrees of stiffness that are used to determine the one that evokes a hindpaw withdrawal. Each filament, starting with the less stiff, is applied to the plantar surface of both hindpaws of each rat. The process is repeated with Von Frey hairs of increasing stiffness until one evokes a reflexive and sustained hindpaw withdrawal. This is defined as the withdrawal threshold, is measured in grams and is an indicator of mechanical allodynia. In the present example the animals were divided in 6 (six) groups (n=7 per group): naive control (negative control), sham control, SNI plus water (positive control), SNI plus (rac)-pirlindole 20 mg/kg, SNI plus (S)-pirlindole 20 mg/kg, SNI plus (R)-pirlindole 20 mg/kg and. After the application of surgical procedure to the groups of sham control, SNI plus water (positive control), SNI plus (rac)-pirlindole, SNI plus (S)-pirlindole and SNI plus (R)-pirlindole, the animals were confined during a 7 weeks (7 wk) period aiming the full induction of mechanical allodynia. Following a 3 week (3 wk), treatment period was started and water or one of the test items (rac-pirlindole, S-pirlindole and R-pirlindole) were administered by intraperitoneal (ip) route, on a daily basis. At the 2nd and 3rd week of treatment the mechanical allodynia was tested. The animals were placed on an elevated wire grid and the plantar surface of the paw stimulated with a series of ascending force Von Frey monofilaments. The threshold was taken as the lowest force that evoked a brisk withdrawal response to one of the repetitive stimuli (Tal and Bennett, 1994). The lateral and medial plantar surfaces of the paw as well as its dorsal surface were tested.
# [1] = wk2 of treatment, SNI plus water 0.41 g
# [2] = wk3 of treatment, SNI plus water 0.14 g
SMILES,mean lowest force that evoked a brisk withdrawal response [1] [g],mean lowest force that evoked a brisk withdrawal response [2] [g]
"Cc1ccc2c(c1)c1c3n2CCNC3CCC1 (racemic) [(rac)-pirlindole, 2,3,3a,4,5,6-hexahydro-8 methyl-1H-pyrazino [3,2,1-j, k] carbazole]",3.50,2.08
Cc1ccc2c(c1)c1c3n2CCN[C@@H]3CCC1 [(R)-pirlindole],3.08,1.39
Cc1ccc2c(c1)c1c3n2CCN[C@H]3CCC1 [(S)-pirlindole],4.51,7.43
